# Results taken from patent US8440708B2, “Triazole-substituted arylamides as P2X3 and P2X2/3 antagonists” (Roche Palo Alto LLC, priority 2007, dated 2013).
# Key:
# rat P2X3 receptor = target: T1, rat P2X3 receptor (Rattus norvegicus, UniProt P49654); assay: P2X3/P2X2/3 FLIPR (Fluorometric Imaging Plate Reader) Assay, P2X3; format: cell-based; details: CHO-K1 cells transfected with rat P2X3; agonist α,β-meATP 1 μM; Table 1; read-out: P2X3 pKi (converted)
# T1 construct: expressed in transfected cells; host or cells: CHO-K1
# T1 sequence (P49654 1-397): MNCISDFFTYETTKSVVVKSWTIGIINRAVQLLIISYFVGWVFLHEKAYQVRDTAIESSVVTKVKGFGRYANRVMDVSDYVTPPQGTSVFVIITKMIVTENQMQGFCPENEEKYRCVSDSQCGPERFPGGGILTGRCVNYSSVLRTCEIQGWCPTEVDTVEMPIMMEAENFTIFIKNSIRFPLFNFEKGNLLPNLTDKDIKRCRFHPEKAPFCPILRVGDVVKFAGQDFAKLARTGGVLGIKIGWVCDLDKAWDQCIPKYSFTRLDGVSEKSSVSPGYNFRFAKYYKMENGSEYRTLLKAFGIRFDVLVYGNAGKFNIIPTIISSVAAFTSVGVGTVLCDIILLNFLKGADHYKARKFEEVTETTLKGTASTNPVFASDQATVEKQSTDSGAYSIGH
# Summary of the method: (§1)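 Inhibition curves came from nonlinear regression of peak fluorescence after α,β-meATP, given at 1 μM final for rat P2X3 and 5 μM for human P2X2/3. Compounds sat 20 min at room temperature on Fluo-3-loaded transfected CHO-K1 cells in HBSS/HEPES/2 mM CaCl2/probenecid buffer before agonist.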
# human P2X2/3 receptor = target: T2, human P2X2/3 receptor (Homo sapiens, UniProt P56373+Q9UBL9); assay: P2X3/P2X2/3 FLIPR (Fluorometric Imaging Plate Reader) Assay, P2X2/3; format: cell-based; details: CHO-K1 cells transfected with human P2X2/3; agonist α,β-meATP 5 μM; Table 1; read-out: P2X2/3 pKi (converted)
# T2 construct: expressed in transfected cells; host or cells: CHO-K1
# T2 sequence (Q9UBL9 1-471): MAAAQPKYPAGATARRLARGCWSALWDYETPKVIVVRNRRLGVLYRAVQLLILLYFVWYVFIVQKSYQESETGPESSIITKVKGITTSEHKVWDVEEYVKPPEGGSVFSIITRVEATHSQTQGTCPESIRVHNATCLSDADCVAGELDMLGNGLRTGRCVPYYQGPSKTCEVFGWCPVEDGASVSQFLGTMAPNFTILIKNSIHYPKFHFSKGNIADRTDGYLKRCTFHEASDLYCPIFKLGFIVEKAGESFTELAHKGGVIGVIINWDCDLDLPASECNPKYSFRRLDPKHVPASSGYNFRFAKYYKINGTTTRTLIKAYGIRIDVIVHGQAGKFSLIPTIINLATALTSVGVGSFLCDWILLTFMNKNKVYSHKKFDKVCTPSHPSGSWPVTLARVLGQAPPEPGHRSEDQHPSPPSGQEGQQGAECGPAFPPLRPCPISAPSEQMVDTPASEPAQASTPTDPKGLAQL
# T2 sequence (P56373 1-397): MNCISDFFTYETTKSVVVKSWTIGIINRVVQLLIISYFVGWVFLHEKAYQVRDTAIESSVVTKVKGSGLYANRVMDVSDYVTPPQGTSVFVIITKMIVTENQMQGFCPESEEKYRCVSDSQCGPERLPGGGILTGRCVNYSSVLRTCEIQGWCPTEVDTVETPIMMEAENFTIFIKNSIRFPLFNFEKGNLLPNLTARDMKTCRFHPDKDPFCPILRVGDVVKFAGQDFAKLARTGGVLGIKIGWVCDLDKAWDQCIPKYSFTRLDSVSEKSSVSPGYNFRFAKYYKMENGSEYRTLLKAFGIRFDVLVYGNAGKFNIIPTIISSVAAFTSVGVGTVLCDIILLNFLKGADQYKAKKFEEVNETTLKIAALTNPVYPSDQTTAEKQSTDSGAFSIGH
# Summary of the method: as §1
SMILES,Ki (rat P2X3 receptor) [nM],Ki (human P2X2/3 receptor) [nM]
"COC(C)c1ncnn1-c1cc(C(=O)NC(C)c2cnccn2)cc(-c2ccc(C)cn2)c1 (centres unmarked) [Compound 58, 3-[5-(1-Methoxy-ethyl)-[1,2,4]triazol-1-yl]-5-(5-methyl-pyridin-2-yl)-N-(1-pyrazin-2-yl-ethyl)-benzamide]",17,132
"Cc1ccc(-c2cc(C(=O)NC(C)CO)cc(-n3nncc3C(C)C)c2)cc1 (centres unmarked) [Compound 11, 5-(5-Isopropyl-[1,2,3]triazol-1-yl)-4′-methyl-biphenyl-3-carboxylic acid (2-hydroxy-1-methyl-ethyl)-amide]",5.25,257
"CCOCCc1ncnn1-c1cc(C(=O)N[C@@H](C)CO)cc(-c2ccc(C)cn2)c1 [Compound 150, 3-[5-(2-Ethoxy-ethyl)-[1,2,4]triazol-1-yl]-N-((S)-2-hydroxy-1-methyl-ethyl)-5-(5-methyl-pyridin-2-yl)-benzamide]",158,10000
"Cc1ccc(-c2cc(C(=O)N[C@@H](C)CO)cc(-n3ncnc3C(F)(F)F)c2)nc1 [Compound 97, N-((S)-2-Hydroxy-1-methyl-ethyl)-3-(5-methyl-pyridin-2-yl)-5-(5-trifluoromethyl-[1,2,4]triazol-1-yl)-benzamide]",8.13,4680
"CC(NC(=O)c1cc(-c2ccc(Cl)cn2)cc(-n2ncnc2C(F)F)c1)c1cnccn1 (centres unmarked) [Compound 76, 3-(5-Chloro-pyridin-2-yl)-5-(5-difluoromethyl-[1,2,4]triazol-1-yl)-N-(1-pyrazin-2-yl-ethyl)-benzamide]",10.2,741
"Cc1ccc(-c2cc(C(=O)NC(C)c3cnccn3)cc(-n3ncnc3C(C)C)c2)nc1 (centres unmarked) [Compound 56, 3-(5-Isopropyl-[1,2,4]triazol-1-yl)-5-(5-methyl-pyridin-2-yl)-N-(1-pyrazin-2-yl-ethyl)-benzamide]",4.57,42.7
"CCn1cc(-c2cc(C(=O)N[C@@H](C)CO)cc(-c3ccc(C)cc3)c2)nn1 [Compound 40, 5-(1-Ethyl-1H-[1,2,3]triazol-4-yl)-4′-methyl-biphenyl-3-carboxylic acid ((S)-2-hydroxy-1-methyl-ethyl)-amide]",10000,10000
"COC(C)c1ncnn1-c1cc(C(=O)NCc2cnc(C)cn2)cc(-c2ccc(C)cn2)c1 (centres unmarked) [Compound 133, 3-[5-(1-Methoxy-ethyl)-[1,2,4]triazol-1-yl]-N-(5-methyl-pyrazin-2-ylmethyl)-5-(5-methyl-pyridin-2-yl)-benzamide]",11,295
"Cc1ccc(-c2cc(-n3ncnc3C(F)(F)F)cc(C(=O)NCc3ncc(C)cn3)c2F)nc1 [Compound 177, 2-Fluoro-3-(5-methyl-pyridin-2-yl)-N-(5-methyl-pyrimidin-2-ylmethyl)-5-(5-trifluoromethyl-[1,2,4]triazol-1-yl)-benzamide]",24,151
"Cc1ccc(-c2cc(C(=O)N[C@@H](C)CO)cc(-n3ncnc3C(C)(C)C)c2)nc1 [Compound 94, 3-(5-tert-Butyl-[1,2,4]triazol-1-yl)-N-((S)-2-hydroxy-1-methyl-ethyl)-5-(5-methyl-pyridin-2-yl)-benzamide]",12.3,10000
